Experimental data from patent US9783853B2, “Recurrent gene fusions in cancer” (THE REGENTS OF THE UNIVERSITY OF MICHIGAN, priority 2013, dated 2017).

Columns and labels:
[1] = system: SW780 cells (FGFR3-BAIAP2L1 fusion); experiment: Cell proliferation assay (WST-1), FGFR inhibition; format: cell-based; conditions: 0, 5, 25, 100 nM
Experimental: For validation of fusion transcripts, quantitative RT-PCR assays were performed. Total cDNAs of index cases and negative control samples were synthesized using SuperScript III System according to the manufacturer's instructions (Invitrogen). Quantitative RT-PCR was performed using fusion-specific primers (Table 15) with SYBR Green Master Mix (Applied Biosystems) on the StepOne Real-Time PCR System (Applied Biosystems). The PCR products were further analyzed by agarose gel electrophoresis. Relative mRNA levels of the fusion transcripts were normalized to the expression of the housekeeping gene GAPDH. Inhibition of FGFR receptors and cell proliferation assay Bladder cancer cells SW780, J82, and HT1197 were seeded into 96-well plates in triplicate and allowed to attach before drug treatment. The FGFR inhibitor PD173074 (Selleck Chemicals) was added to the cultures at concentrations of 0, 5, 25, and 100 nM. Relative cell numbers were measured by WST-1 assays at indicated time points following the manufacturer's instructions (Roche).

[2] = system: J82 xenografts; experiment: Mouse xenograft model, tumor growth; format: in vivo, C.B17/SCID mice; conditions: increasing doses, intraperitoneal
Experimental: (§1) Five week-old male C.B17/SCID mice were procured from a breeding colony at University of Michigan, maintained by Dr. Kenneth Pienta. Mice were anesthetized using a cocktail of xylazine ([…], intraperitoneal) and ketamine (10 mg/kg, intraperitoneal) for chemical restraint. Bladder cancer cells SW780 (2 million cells for each implantation site) or J82 (5 million cells for each implantation site) were resuspended in 100 μl of 1×PBS with 20% Matrigel (BD Biosciences) and were implanted subcutaneously into flank region on both sides. Eight mice were included in each experimental group. All tumors were staged for two weeks (SW780 cells) and three weeks (J82 cells) before starting the drug treatment. Xenografted mice with palpable tumors were treated with a FGFR inhibitor PD173074 (Selleck Chemicals) dissolved in 5% ethanol in corn oil (intraperitoneal). Mice in control group received 5% ethanol in corn oil as vehicle control. Tumor growth was recorded weekly by using digital calipers and tumor volumes were calculated using the formula (π/6) (L×W2), where L=length of tumor and W=width. Any decrease in the body weight of mice was monitored bi-weekly during the course of the study. All experimental procedures involving mice were approved by the University Committee on Use and Care of Animals (UCUCA) at the University of Michigan and conform to their relevant regulatory standards.

[3] = system: SW780 xenografts; experiment: Mouse xenograft model, tumor growth; format: in vivo, C.B17/SCID mice; conditions: increasing doses, intraperitoneal
Experimental: as §1

With `CCN(CC)CCCCNc1ncc2cc(-c3cc(OC)cc(OC)c3)c(NC(=O)NC(C)(C)C)nc2n1` [PD173074] the “sensitivity of cell line to FGFR inhibitor (cell proliferation)” value [1] was “sensitive to nanomolar concentrations”, the “sensitivity of cell line to FGFR inhibitor (cell proliferation)” value ([1]; listed as PD 173074) was “enhanced sensitivity” and the xenograft tumor growth [2] was “did not”. The xenograft tumor growth [3] was “decreased tumor growth”.
